According to PubChem BioAssay (NCI):
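96-well plates; 48 h exposure; 5 concentrations. Endpoints by linear interpolation between flanking doses. Not reached: highest tested concentration assigned. The concentration for full growth arrest is given as TGI.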

Key:
Assay in all cases: NCI-60 cell line screen, 48 h
[1] = system: EKVX NSCLC
[2] = system: SF-295 CNS
[3] = system: SK-OV-3 ovarian
[4] = system: CAKI-1 renal
[5] = system: ACHN renal
[6] = system: SW-620 colon
[7] = system: SNB-19 CNS
[8] = system: OVCAR-4 ovarian
[9] = system: DMS 114 small cell lung
[10] = system: TK-10 renal
[11] = system: OVCAR-5 ovarian
[12] = system: SF-539 CNS
[13] = system: IGROV1 ovarian
[14] = system: COLO 205 colon
[15] = system: NCI-H460 lung
[16] = system: OVCAR-3 ovarian
[17] = system: CCRF-CEM leukemia
[18] = system: K-562 leukemia
[19] = system: HOP-18 NSCLC
[20] = system: UACC-257 melanoma
[21] = system: HOP-92 NSCLC
[22] = system: SK-MEL-2 melanoma
[23] = system: SK-MEL-28 melanoma
[24] = system: UO-31 renal
[25] = system: HOP-62 NSCLC
[26] = system: HL-60(TB) leukemia
[27] = system: NCI-H226 lung
[28] = system: MOLT-4 leukemia
[29] = system: SK-MEL-5 melanoma
[30] = system: KM20L2 colon
[31] = system: A498 renal
[32] = system: SNB-75 CNS
[33] = system: M19-MEL melanoma
[34] = system: SF-268 CNS
[35] = system: U251 CNS
[36] = system: DLD-1 colon
[37] = system: DMS 273 small cell lung
[38] = system: A549 NSCLC
[39] = system: KM12 colon
[40] = system: HT29 colon
[41] = system: RXF 393 renal
[42] = system: LXFL 529 NSCLC
[43] = system: OVCAR-8 ovarian
[44] = system: M14 melanoma
[45] = system: 786-0 renal
[46] = system: SR leukemia
[47] = system: UACC-62 melanoma
[48] = system: NCI-H23 lung
[49] = system: SN12C renal
[50] = system: MALME-3M melanoma
[51] = system: HCC-2998 colon
[52] = system: NCI-H522 lung
[53] = system: HCT-15 colon
[54] = system: LOX IMVI melanoma
[55] = system: HCT-116 colon

Measured: TGI

NC(N)=N/N=C/c1oc(-c2ccc(S(=O)(=O)O)o2)c(-c2ccc(S(=O)(=O)O)o2)c1[N+](=O)[O-]
> 100 µM: [1] | [2] | [3] | [4] | [5] | [6] | [7] | [8] | [9] | [10] | [11] | [12] | [13] | [14] | [15] | [16] | [17] | [18] | [19] | [20] | [21] | [22] | [23] | [24] | [25] | [26] | [27] | [28] | [29] | [30] | [31] | [32] | [33] | [34] | [35] | [36] | [37] | [38] | [39] | [40] | [41] | [42] | [43] | [44] | [45] | [46] | [47] | [48] | [49] | [50] | [51] | [52] | [53] | [54] | [55]
